Measured values as given in paper PMC9666779 (Frontiers in Pharmacology, 2022).
Bridge positions count the residues as written; N and C are the ends. Square brackets hold non-standard residues; d marks the D form. Peptide text beside a SMILES is read from it.

Tested on: pseudotyped SARS-CoV-2 Omicron BA.2.75
Conditions: pseudotyped Omicron BA.2.75, 1 h, 2 μM

With `CC(C)C[C@@H]1NC(=O)[C@H](C(C)C)NC(=O)[C@H](C)NC(=O)[C@H](Cc2ccc(O)cc2)NC(=O)[C@H](CCC(N)=O)NC(=O)[C@H](CC(C)C)NC(=O)[C@@H](Cc2ccccc2)NC(=O)[C@H](N)CSSC[C@H](C(=O)NCC(=O)NCC(=O)NCC(=O)N[C@@H](CCCNC(=N)N)C(=O)N2CCC[C@H]2C(=O)N2CCC[C@H]2C(=O)N[C@@H](CCCNC(=N)N)C(=O)N[C@@H](CCCNC(=N)N)C(=O)N[C@@H](C)C(=O)N[C@@H](CCCNC(=N)N)C(=O)O)NC(=O)[C@H](CCC(=O)O)NC(=O)[C@H](CCCNC(=N)N)NC(=O)[C@H](CCCNC(=N)N)NC(=O)[C@H](CCCCN)NC(=O)[C@H](CCC(N)=O)NC(=O)[C@H](CCCCN)NC1=O` [MN-2] (H-[dC][dF]LQYAVLKQKRRE[dC]GGGRPPRRAR-OH; disulfide 1-15) the “inhibition rate of the variant Omicron BA.2.75 pseudovirus” value was “about 80%”.
